Experimental data reported in PubChem BioAssay AID264 (DTP/NCI, 2004).
Several values for one entry are separate records, joined by “and”; a condition that tells them apart may be missing. Identical values can stand only once. Records with an inconclusive call do not appear.

Test system: nude mice, LX-1 lung xenograft intrarenal, tumor weight T/C
Test: NCI In Vivo Anticancer Drug Screen. Data for tumor model Human Lung LX-1 Xenograft (intrarenal inoculation) in NU/NU Swiss (nude) mice
Settings: endpoint: mean tumor weight change, higher = larger tumour
Protocol: The antitumor activity of compounds was measured in mice bearing transplantable tumors. Survival or tumor size were measured and the results are expressed as the measurement made in the treated group (T) divided by the measurement made in the vehicle treated control group (C). The tumor model used in this assay is Human Lung LX-1 Xenograft (intrarenal inoculation) in NU/NU Swiss (nude) mice

[1] = dose: 12.5 mg/kg/injection, schedule: Q01DX010 (sc), vehicle: Klucel (hydroxypropylcellulose) (HPC)
[2] = dose: 300.0 mg/kg/injection, schedule: Q04DX003 (sc), vehicle: saline with Tween-80
[3] = dose: 600.0 mg/kg/injection, schedule: Q04DX003 (sc), vehicle: saline with Tween-80
[4] = dose: 1200.0 mg/kg/injection, schedule: Q04DX003 (sc), vehicle: saline with Tween-80
[5] = dose: 2400.0 mg/kg/injection, schedule: Q04DX003 (sc), vehicle: saline with Tween-80
[6] = dose: 75.0 mg/kg/injection, schedule: Q04DX003 (sc), vehicle: saline
[7] = dose: 100.0 mg/kg/injection, schedule: Q01DX010 (sc), vehicle: Klucel (hydroxypropylcellulose) (HPC)
[8] = dose: 400.0 mg/kg/injection, schedule: Q01DX010 (sc), vehicle: Klucel (hydroxypropylcellulose) (HPC)
[9] = dose: 300.0 mg/kg/injection, schedule: Q04DX003 (sc), vehicle: Klucel (hydroxypropylcellulose) (HPC)
[10] = dose: 600.0 mg/kg/injection, schedule: Q04DX003 (sc), vehicle: Klucel (hydroxypropylcellulose) (HPC)
[11] = dose: 1200.0 mg/kg/injection, schedule: Q04DX003 (sc), vehicle: Klucel (hydroxypropylcellulose) (HPC)

Compound: [N-]=[N+]=C1N=CN=C1c1ncn[nH]1
- T/C [1]: 153 % of control
- T/C (dose: 50.0 mg/kg/injection, schedule: Q01DX010 (sc), vehicle: Klucel (hydroxypropylcellulose) (HPC)): 55 % of control

Compound: C=C1C(=O)OCC2C(C(=O)O)=CC3C(C)C(C)=CC123 (configuration not stated)
- T/C (dose: 3.13 mg/kg/injection, schedule: Q01DX010 (sc), vehicle: Klucel (hydroxypropylcellulose) (HPC)): 56 % of control
- T/C (dose: 6.25 mg/kg/injection, schedule: Q01DX010 (sc), vehicle: Klucel (hydroxypropylcellulose) (HPC)): 109 % of control
- T/C [1]: 78 % of control
- T/C (dose: 25.0 mg/kg/injection, schedule: Q01DX010 (sc), vehicle: Klucel (hydroxypropylcellulose) (HPC)): 165 % of control

Compound: Cc1ccc(N)c(N)c1
- T/C (dose: 200.0 mg/kg/injection, schedule: Q04DX003 (sc), vehicle: saline with Tween-80): 57 % of control
- T/C (dose: 400.0 mg/kg/injection, schedule: Q04DX003 (sc), vehicle: saline with Tween-80): 74 % of control
- T/C (dose: 800.0 mg/kg/injection, schedule: Q04DX003 (sc), vehicle: saline with Tween-80): 57 % of control

Compound: O=CC(NC(=O)N(CCCl)N=O)C(O)C(O)C(O)CO (configuration not stated)
- T/C (dose: 1.5 mg/kg/injection, schedule: Q01DX010 (sc), vehicle: Klucel (hydroxypropylcellulose) (HPC)): 208 % of control
- T/C (dose: 6.0 mg/kg/injection, schedule: Q01DX010 (sc), vehicle: Klucel (hydroxypropylcellulose) (HPC)): 20 % of control and 45 % of control
- T/C (dose: 12.0 mg/kg/injection, schedule: Q01DX010 (sc), vehicle: Klucel (hydroxypropylcellulose) (HPC)): -23 % of control

Compound: CC(/C=N/N=C(N)N)=N\N=C(N)N
- T/C (dose: 12.5 mg/kg/injection, schedule: Q01DX010 (sc), vehicle: water): 81 % of control
- T/C (dose: 25.0 mg/kg/injection, schedule: Q01DX010 (sc), vehicle: water): 78 % of control
- T/C (dose: 100.0 mg/kg/injection, schedule: Q01DX010 (sc), vehicle: water): 58 % of control

Compound: O=C(Nc1cccc2c(OC(=O)C(Cl)Cl)c(N=Nc3ccc(S(=O)(=O)Nc4nccs4)cc3)cc(N=Nc3ccc(S(=O)(=O)Nc4nccs4)cc3)c12)C(Cl)Cl (tested in a mixture with another compound)
- T/C (dose: 25.0 mg/kg/injection, schedule: Q04DX003 (sc), vehicle: saline with Tween-80): 104 % of control
- T/C (dose: 50.0 mg/kg/injection, schedule: Q04DX003 (sc), vehicle: saline with Tween-80): 92 % of control
- T/C (dose: 100.0 mg/kg/injection, schedule: Q04DX003 (sc), vehicle: saline with Tween-80): 116 % of control
- T/C [2]: 90 % of control
- T/C [3]: 120 % of control
- T/C [4]: 83 % of control
- T/C [5]: 120 % of control

Compound: OCCN1CCN(CC/C=C2/c3ccccc3Sc3ccc(Cl)cc32)CC1
- T/C (dose: 6.25 mg/kg/injection, schedule: Q04DX003 (sc), vehicle: saline): 78 % of control
- T/C (dose: 12.5 mg/kg/injection, schedule: Q04DX003 (sc), vehicle: saline): 68 % of control
- T/C (dose: 25.0 mg/kg/injection, schedule: Q04DX003 (sc), vehicle: saline): 52 % of control
- T/C (dose: 50.0 mg/kg/injection, schedule: Q04DX003 (sc), vehicle: saline): 43 % of control

Compound: NC(=O)c1ncn(C2OC(CO)C(O)C2O)n1 (configuration not stated)
- T/C (dose: 300.0 mg/kg/injection, schedule: Q04DX003 (sc), vehicle: saline): 85 % of control
- T/C (dose: 600.0 mg/kg/injection, schedule: Q04DX003 (sc), vehicle: saline): 95 % of control
- T/C (dose: 1200.0 mg/kg/injection, schedule: Q04DX003 (sc), vehicle: saline): 42 % of control

Compound: CN(C)c1ccc2c(N(C)C)cc(N(C)C)nc2c1
- T/C (dose: 9.38 mg/kg/injection, schedule: Q04DX003 (sc), vehicle: Klucel (hydroxypropylcellulose) (HPC)): 102 % of control
- T/C (dose: 18.75 mg/kg/injection, schedule: Q04DX003 (sc), vehicle: Klucel (hydroxypropylcellulose) (HPC)): 123 % of control
- T/C (dose: 37.5 mg/kg/injection, schedule: Q04DX003 (sc), vehicle: Klucel (hydroxypropylcellulose) (HPC)): 96 % of control
- T/C (dose: 75.0 mg/kg/injection, schedule: Q04DX003 (sc), vehicle: Klucel (hydroxypropylcellulose) (HPC)): 154 % of control

Compound: O=C1OC(C(O)CO)C(O)=C1O (configuration not stated)
- T/C (dose: 400.0 mg/kg/injection, schedule: Q01DX010 (sc), vehicle: saline): 205 % of control
- T/C (dose: 800.0 mg/kg/injection, schedule: Q01DX010 (sc), vehicle: saline): 110 % of control
- T/C (dose: 1600.0 mg/kg/injection, schedule: Q01DX010 (sc), vehicle: saline): 153 % of control

Compound: O=C1SC(c2ccccc2)=S=C1c1ccccc1
- T/C [3]: 224 % of control
- T/C [4]: 78 % of control
- T/C [5]: 88 % of control

Compound: C1CC[N-]CC1.C1CC[N-]CC1.C1CC[N-]CC1.[Cl][Rh]([Cl])[Cl]
- T/C [6]: 78 % of control
- T/C (dose: 150.0 mg/kg/injection, schedule: Q04DX003 (sc), vehicle: saline): 87 % of control

Compound: O=S(=O)(c1ccccc1)N1CN2CCN(C2)C1
- T/C (dose: 150.0 mg/kg/injection, schedule: Q04DX003 (sc), vehicle: saline with Tween-80): 195 % of control
- T/C [3]: 106 % of control
- T/C [4]: 156 % of control

Compound: Nc1cc2[nH]cnc2c(=O)[nH]1
- T/C (dose: 25.0 mg/kg/injection, schedule: Q01DX010 (sc), vehicle: saline): 25 % of control
- T/C (dose: 200.0 mg/kg/injection, schedule: Q01DX010 (sc), vehicle: saline): 16 % of control and 18 % of control

Compound: CC[C@]1(O)C[C@H]2CN(CCc3c([nH]c4ccccc34)[C@@](C(=O)OC)(c3cc4c(cc3OC)N(C)[C@H]3[C@@](O)(C(=O)OC)[C@H](OC(C)=O)[C@]5(CC)C=CCN6CC[C@]43[C@@H]65)C2)C1
- T/C (dose: 0.25 mg/kg/injection, schedule: Q01DX010 (sc), vehicle: saline): 52 % of control
- T/C (dose: 1.0 mg/kg/injection, schedule: Q01DX010 (sc), vehicle: saline): 68 % of control
- T/C (dose: 2.0 mg/kg/injection, schedule: Q01DX010 (sc), vehicle: saline): 28 % of control

Compound: NCC1CCC(C(=O)O)CC1 (configuration not stated)
- T/C [2]: 167 % of control
- T/C [3]: 104 % of control
- T/C [4]: 75 % of control
- T/C [5]: 79 % of control

Compound: O=C1C=CN(C2OC(CO)C(O)C2O)C(=O)C1 (configuration not stated)
- T/C (dose: 50.0 mg/kg/injection, schedule: Q01DX010 (sc), vehicle: saline): 65 % of control
- T/C (dose: 100.0 mg/kg/injection, schedule: Q01DX010 (sc), vehicle: saline): 21 % of control

Compound: O=C(Nc1ccc(Cl)c(Cl)c1)Nc1c(Oc2ccc(Cl)c(Cl)c2)ccc(Cl)c1S(=O)(=O)O
- T/C [7]: 43 % of control
- T/C (dose: 200.0 mg/kg/injection, schedule: Q01DX010 (sc), vehicle: Klucel (hydroxypropylcellulose) (HPC)): 50 % of control
- T/C [8]: 69 % of control
- T/C (dose: 800.0 mg/kg/injection, schedule: Q01DX010 (sc), vehicle: Klucel (hydroxypropylcellulose) (HPC)): 60 % of control

Compound: NC(=O)/C=C/c1c[nH]c2nccnc12
- T/C (dose: 50.0 mg/kg/injection, schedule: Q04DX003 (sc), vehicle: water): 86 % of control

Compound: CCOC(=O)C(N)C[S][Sn]([CH3])([CH3])[Cl] (configuration not stated)
- T/C (dose: 18.75 mg/kg/injection, schedule: Q04DX003 (sc), vehicle: saline): 52 % of control
- T/C (dose: 37.5 mg/kg/injection, schedule: Q04DX003 (sc), vehicle: saline): 57 % of control
- T/C [6]: 54 % of control

Compound: Cc1cc2c(C(C)C)c(O)c(O)c(C=O)c2c(O)c1-c1c(C)cc2c(C(C)C)c(O)c(O)c(C=O)c2c1O
- T/C (dose: 37.5 mg/kg/injection, schedule: Q04DX003 (sc), vehicle: saline with Tween-80): 85 % of control
- T/C (dose: 75.0 mg/kg/injection, schedule: Q04DX003 (sc), vehicle: saline with Tween-80): 75 % of control

Compound: NCCc1cc(O)c(O)c(O)c1
- T/C (dose: 100.0 mg/kg/injection, schedule: Q04DX003 (sc), vehicle: saline): 83 % of control
- T/C (dose: 200.0 mg/kg/injection, schedule: Q04DX003 (sc), vehicle: saline): 96 % of control
- T/C (dose: 800.0 mg/kg/injection, schedule: Q04DX003 (sc), vehicle: saline): 91 % of control

Compound: O=c1ssc(=Nc2ccccc2)n1-c1ccccc1
- T/C [7]: 77 % of control
- T/C [8]: 97 % of control

Compound: CC(C)CC(=O)NC(C(=O)NC(C(=O)NC(CC(C)C)C(O)CC(=O)NC(C)C(=O)NC(CC(C)C)C(O)CC(=O)O)C(C)C)C(C)C (configuration not stated)
- T/C (dose: 150.0 mg/kg/injection, schedule: Q04DX003 (sc), vehicle: Klucel (hydroxypropylcellulose) (HPC)): 70 % of control
- T/C [9]: 93 % of control
- T/C [10]: 66 % of control
- T/C [11]: 51 % of control

Compound: O=NN(CCCl)C(=O)Oc1ccc(OC(=O)N(CCCl)N=O)cc1
- T/C [9]: 110 % of control
- T/C [10]: 70 % of control
- T/C [11]: 49 % of control
